Read-outs that look alike come from different tables or passages of the source.
Key:
Type in all cases: in vivo
[1] = tested on: Beet Armyworm (BAW) (Spodoptera exigua); test: Bioassay on Beet Armyworm (BAW), 128-well diet tray assay; conditions: 168 h, 50 μg/cm^2 on artificial diet, second instar larvae, five to seven days, 25° C., read-out: BAW % Control (or Mortality) rating
How it was run: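 Artificial diet was surface-treated with 50 μg/cm^2 compound in 90:10 acetone-water and dried, then infested with one to five second-instar larvae per well. Trays were held 5–7 days at 25° C, 14:10 light-dark. Percent mortality was averaged over eight wells.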

[2] = tested on: Cabbage Looper (CL) (Trichoplusia ni); test: Bioassay on Cabbage Looper (CL), 128-well diet tray assay; conditions: 168 h, 50 μg/cm^2 on artificial diet, second instar larvae, five to seven days, 25° C., read-out: CL % Control (or Mortality) rating
How it was run: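 Second-instar larvae (one to five per well) placed on artificial diet treated with 50 μg/cm^2 compound in 90:10 acetone-water, dried, eight wells per compound. Held at 25 °C, 14:10 light-dark for five to seven days; percent mortality per well, averaged over the eight wells.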

[3] = tested on: Green Peach Aphid (GPA) (Myzus persicae); test: Bioassay on Green Peach Aphid (GPA), foliar spray on cabbage seedlings; conditions: 72 h, 200 ppm foliar spray on cabbage seedlings, graded after three days, Abbott corrected % control, read-out: GPA % Control (or Mortality) rating
Procedure: Certain molecules disclosed in this document were tested against GPA using procedures described in the following example. In the reporting of the results, the “GPA & YFM Rating Table” was used (See Table Section).
Cabbage seedlings grown in 3-inch pots, with 2-3 small (3-5 cm) true leaves, were used as test substrate. The seedlings were infested with 20-50 GPA (wingless adult and nymph stages) one day prior to chemical application. Four pots with individual seedlings were used for each treatment. Test compounds (2 mg) were dissolved in 2 mL of acetone/MeOH (1:1) solvent, forming stock solutions of 1000 ppm test compound. The stock solutions were diluted 5× with 0.025% Tween 20 in water to obtain the solution at 200 ppm test compound. A hand-held aspirator-type sprayer was used for spraying a solution to both sides of […] leaves until runoff. Reference plants (solvent check) were sprayed with the diluent only containing 20% by volume of acetone/MeOH (1:1) solvent. Treated plants were held in a holding room for three days at approximately 25° C. and ambient relative humidity (RH) prior to grading. Evaluation was conducted by counting the number of live aphids per plant under a microscope. Percent Control was measured by using Abbott's correction formula (W. S. Abbott, “A Method of Computing the Effectiveness of an Insecticide” J. Econ. Entomol. 18 (1925), pp. 265-267) as follows. Corrected % Control=100*(X−Y)/X where X=No. of live aphids on solvent check plants and Y=No. of live aphids on treated plants. The results are indicated in the table entitled “Table ABC: Assay Results” and “Table ABCD: Assay Results” (See Table Section).

[4] = tested on: Yellow Fever Mosquito (YFM) (Aedes aegypti); test: Bioassay on Yellow Fever Mosquito (YFM) larvae, 96-well plate; conditions: about 1 day-old larvae, master plate 4000 ppm in DMSO diluted, scored on mortality after 3 days
How it was run: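 Compounds from 4000 ppm DMSO master solutions, diluted in 90:10 water:acetone, dispensed into wells and infested with about 1-day-old larvae in liver-powder water. Held covered at room temperature for 3 days, then each well scored for mortality; 6 replicate plates per master.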

Compound	mortality at 50 µg/cm2 ([1]; Table ABCD)	mortality at 50 µg/cm2 ([2]; Table ABCD)	mortality at 200 ppm ([3]; Table ABCD)	YFM % Control (or Mortality) rating ([4]; Table ABCD)	mortality at 50 µg/cm2 ([1]; Table ABC)	mortality at 50 µg/cm2 ([2]; Table ABC)	mortality at 200 ppm ([3]; Table ABC)	YFM % Control (or Mortality) rating ([4]; Table ABC)
CC(C)(C)OC(=O)NC1Cc2ccc(-c3ncn(-c4ccc(OC(F)(F)F)cc4)n3)cc2C1 (stereo not shown) [C1, tert-butyl (5-(1-(4-(trifluoromethoxy)phenyl)-1H-1,2,4-triazol-3-yl)-2,3-dihydro-1H-inden-2-yl)carbamate]	50 to 100%	50 to 100%	0 to 80%	A (80-100)	–	–	–	–
Cc1ccc(C(C)C)c(N2C(=O)CS/C2=N\C(=O)NC2Cc3ccc(-c4ncn(-c5ccc(OC(F)(F)F)cc5)n4)cc3C2)c1 (stereo not shown) [F2, (Z)-1-(3-(2-isopropyl-5-methylphenyl)-4-oxothiazolidin-2-ylidene)-3-(5-(1-(4-(trifluoromethoxy)phenyl)-1H-1,2,4-triazol-3-yl)-2,3-dihydro-1H-inden-2-yl)urea]	–	–	–	–	50 to 100%	50 to 100%	0 to 80%	A (80-100)
Cc1ccc(C(C)C)c(N2C(=O)CS/C2=N\C(=O)NC2Cc3ccc(-c4ncn(-c5ccc(OC(F)(F)C(F)(F)F)cc5)n4)cc3C2)c1 (stereo not shown) [F4, (Z)-1-(3-(2-Isopropyl-5-methylphenyl)-4-oxothiazolidin-2-ylidene)-3-(5-(1-(4-(perfluoroethoxy)phenyl)-1H-1,2,4-triazol-3-yl)-2,3-dihydro-1H-inden-2-yl)urea]	–	–	–	–	50 to 100%	50 to 100%	0 to 80%	A (80-100)
CCc1ccccc1N1C(=O)CS/C1=N\C(=O)NC1Cc2ccc(-c3ncn(-c4ccc(OC(F)(F)F)cc4)n3)cc2C1 (stereo not shown) [F12, (Z)-1-(3-(2-Ethylphenyl)-4-oxothiazolidin-2-ylidene)-3-(5-(1-(4-(trifluoromethoxy)phenyl)-1H-1,2,4-triazol-3-yl)-2,3-dihydro-1H-inden-2-yl)urea]	–	–	–	–	50 to 100%	50 to 100%	0%	A (80-100)
CCCc1ccc(C)cc1N1C(=O)CS/C1=N\C(=O)NC1Cc2ccc(-c3ncn(-c4ccc(OC(F)(F)F)cc4)n3)cc2C1 (stereo not shown) [F13, (Z)-1-(3-(5-Methyl-2-propylphenyl)-4-oxothiazolidin-2-ylidene)-3-(5-(1-(4-(trifluoromethoxy)phenyl)-1H-1,2,4-triazol-3-yl)-2,3-dihydro-1H-inden-2-yl)urea]	–	–	–	–	50 to 100%	50 to 100%	0 to 80%	A (80-100)
O=C(/N=C1\SCC(=O)N1c1ccccc1C1CC1)NC1Cc2ccc(-c3ncn(-c4ccc(OC(F)(F)F)cc4)n3)cc2C1 (stereo not shown) [F15, (Z)-1-(3-(2-Cyclopropylphenyl)-4-oxothiazolidin-2-ylidene)-3-(5-(1-(4-(trifluoromethoxy)phenyl)-1H-1,2,4-triazol-3-yl)-2,3-dihydro-1H-inden-2-yl)urea]	–	–	–	–	50 to 100%	50 to 100%	0 to 80%	A (80-100)
CC1S/C(=N\C(=O)NC2Cc3ccc(-c4ncn(-c5ccc(OC(F)(F)F)cc5)n4)cc3C2)N(c2ccccc2C(C)C)C1=O (stereo not shown) [FA2, (Z)-1-(3-(2-isopropylphenyl)-5-methyl-4-oxothiazolidin-2-ylidene)-3-(5-(1-(4-(trifluoromethoxy)phenyl)-1H-1,2,4-triazol-3-yl)-2,3-dihydro-1H-inden-2-yl)urea]	–	–	–	–	50 to 100%	50 to 100%	0 to 80%	A (80-100)
CC(C)c1ccc(Cl)cc1N1C(=O)CS/C1=N\C(=O)NC1CCc2cc(-c3ncn(-c4ccc(OC(F)(F)F)cc4)n3)ccc2C1 (stereo not shown) [P33, (Z)-1-(3-(5-Chloro-2-isopropylphenyl)-4-oxothiazolidin-2-ylidene)-3-(6-(1-(4-(trifluoromethoxy)phenyl)-1H-1,2,4-triazol-3-yl)-1,2,3,4-tetrahydronaphthalen-2-yl)urea]	–	–	–	–	50 to 100%	50 to 100%	–	A (80-100)
CCCc1ccc(C)cc1N1C(=O)CS/C1=N\C(=O)NC1CCc2cc(-c3ncn(-c4ccc(OC(F)(F)F)cc4)n3)ccc2C1 (stereo not shown) [P34, (Z)-1-(3-(5-Methyl-2-propylphenyl)-4-oxothiazolidin-2-ylidene)-3-(6-(1-(4-(trifluoromethoxy)phenyl)-1H-1,2,4-triazol-3-yl)-1,2,3,4-tetrahydronaphthalen-2-yl)urea]	–	–	–	–	50 to 100%	50 to 100%	–	D (No activity noticed in this bioassay)
COc1ccc(N2C(=O)CS/C2=N\C(=O)NC2CCc3cc(-c4ncn(-c5ccc(OC(F)(F)F)cc5)n4)ccc3C2)c(C)c1 (stereo not shown) [P35, (Z)-1-(3-(4-methoxy-2-methylphenyl)-4-oxothiazolidin-2-ylidene)-3-(6-(1-(4-(trifluoromethoxy)phenyl)-1H-1,2,4-triazol-3-yl)-1,2,3,4-tetrahydronaphthalen-2-yl)urea]	–	–	–	–	50 to 100%	50 to 100%	–	A (80-100)
CCc1cccc(C)c1N1C(=O)CS/C1=N\C(=O)NC1CCc2cc(-c3ncn(-c4ccc(OC(F)(F)F)cc4)n3)ccc2C1 (stereo not shown) [P36, (Z)-1-(3-(2-Ethyl-6-methylphenyl)-4-oxothiazolidin-2-ylidene)-3-(6-(1-(4-(trifluoromethoxy)phenyl)-1H-1,2,4-triazol-3-yl)-1,2,3,4-tetrahydronaphthalen-2-yl)urea]	–	–	–	–	50 to 100%	50 to 100%	–	A (80-100)
Cc1ccc(Cl)c(N2C(=O)CS/C2=N\C(=O)NC2CCc3cc(-c4ncn(-c5ccc(OC(F)(F)F)cc5)n4)ccc3C2)c1 (stereo not shown) [P37, (Z)-1-(3-(2-Chloro-5-methylphenyl)-4-oxothiazolidin-2-ylidene)-3-(6-(1-(4-(trifluoromethoxy)phenyl)-1H-1,2,4-triazol-3-yl)-1,2,3,4-tetrahydronaphthalen-2-yl)urea]	–	–	–	–	50 to 100%	50 to 100%	–	D (No activity noticed in this bioassay)
COc1ccc(C)cc1N1C(=O)CS/C1=N\C(=O)NC1CCc2cc(-c3ncn(-c4ccc(OC(F)(F)F)cc4)n3)ccc2C1 (stereo not shown) [P38, (Z)-1-(3-(2-Methoxy-5-methylphenyl)-4-oxothiazolidin-2-ylidene)-3-(6-(1-(4-(trifluoromethoxy)phenyl)-1H-1,2,4-triazol-3-yl)-1,2,3,4-tetrahydronaphthalen-2-yl)urea]	–	–	–	–	50 to 100%	50 to 100%	–	A (80-100)

Source: patent US9469617B2, “Molecules having certain pesticidal utilities, and intermediates, compositions, and processes related thereto” (priority 2014, dated 2016)
